According to US11419335B2, “N-arylated analogues and uses thereof” (University of Florida Research Foundation, Incorporated, priority 2016, dated 2022):
Like-named read-outs stand apart in the source and are kept apart here. Marks after values point to notes of the source that are not given here.

Columns and labels:
[1] = system: C. albicans SC5314 biofilms; test: MTT assay for fungal biofilm eradication (MBEC), C. albicans; assay type: cell-based, Candida albicans; settings: Table 2B, 90% eradicated biofilm
Procedure: One colony was picked from a 24-hour old culture of Candida spp. or 48-hour old culture of C. neoformans and added to YPD liquid medium for inoculation and cultured at 37° C. overnight. Cells were then washed with PBS (Phosphate-buffered saline (10 mM potassium phosphate, 150 mM NaCl, pH 7.0)) and standardized to OD600=1.0. Microtiter wells were then treated with 50% FCS (Fetal calf serum) in PBS for at least 30 min at room temperature (FCS pre-treatment is not absolutely required for Candida spp.). The FCS was aspirated and microtiter wells were rinsed once with 200 μL PBS before 100 μL of the cell suspension was added to each microtiter well. The plate was then incubated statically at 37° C. for 2 hours. Non-adherent cells were then removed by aspiration and microtiter wells were washed with PBS twice to remove loosely associated cells.
The resulting cell culture was aspirated and wells were rinsed once with 200 μL PBS. Controls and compounds were diluted in YNB medium (200 μL) were added to microtiter wells.
Following incubation, the culture was aspirated and wells are rinsed twice with 200 μL PBS before 100 μL of MTT (0.5 mg/mL dissolved in PBS containing 1% glucose) was added to each microtiter well. The plate was then incubated at 37° C. for 30 min, or longer, until dark blue/black crystals formation could be observed (usually 2 hours at most). The MTT reaction was terminated by aspiration of the solution. The crystals were then solubilized by adding 100 μL of 40% acetic acid to the microtiter wells. Killing efficacies were monitored by eye or quantitatively measured using a plate reader (absorbance at 550 nm). MBEC values were determined as the lowest compound concentration leading to 90% eradicated biofilm. All MBEC values using the MTT assay were recorded from at least three independent experiments.

[2] = system: C. albicans SC5314; test: Fungal MIC susceptibility assay, C. albicans; assay type: cell-based, Candida albicans; settings: for C. albicans SC5314 MIC: Table 2B
Procedure: (§1) Fungal minimum inhibition concentrations (MICs) were determined using standard microdilution methods according to the Clinical and Laboratory Standards Institute document M27-A3. The test compound concentration ranged from 0.01 to 100 μM. Amphotericin B (AmB) and itraconazole (ITC) (Fisher Scientific) were included as positive controls. DMSO, the vehicle control, was used at ≤1% v/v for these experiments. The fungal M27-A3 standard MIC assay protocol requires the following inoculum preparation protocol: The organisms were cultured onto PDA medium at 35° C. The inoculum is prepared by picking five colonies from 24-hour old culture of Candida spp. or 48-hour old culture of C. neoformans. The inoculum was suspended in 5 ml of sterile water, the resulting suspension was vortexed for 15 seconds and the cell density adjusted (by adding more sterile water) to an OD530=0.30, which yields a suspension of 1×10^6 to 5×10^6 cells per mL. The suspension was diluted 50 times and then 20 times using RPMI 1640 medium to obtain the two times test inoculum (1×10^3 to 5×10^3 cells per mL). The following steps are the same with the standard bacterial MIC protocol using 96-well plates. NOTE: RPMI 1640 medium was used in the fungal MIC assay (for both cell inoculum and compound dilution).

[3] = system: C. neoformans ATCC 66031; test: Minimum fungicidal concentration assay, C. neoformans; assay type: cell-based; settings: Table 2B
[4] = system: C. neoformans ATCC 66031; test: Fungal MIC susceptibility assay, C. neoformans; assay type: cell-based; settings: for C. neoformans 66031 MIC: Table 2B
Procedure: as §1

[5] = system: Klebsiella pneumoniae (ATCC 13883); test: MIC broth microdilution, K. pneumoniae 13883; assay type: cell-based
Procedure: (§2) The minimum inhibitory concentration (MIC) for each tested compound was determined by the broth microdilution method as recommended by the Clinical and Laboratory Standards Institute (CLSI). In a 96-well plate, eleven two-fold serial dilutions of each compound were made in a final volume of 100 μL Luria Broth. Each well was inoculated with ˜10^5 bacterial cells at the initial time of incubation, prepared from a fresh log phase culture (OD600 of 0.5 to 1.0 depending on bacterial strain). The MIC was defined as the lowest concentration of compound that prevented bacterial growth after incubating 16 to 18 hours at 37° C. (MIC values were supported by spectrophotometric readings at OD600). DMSO served as our vehicle and negative control in each microdilution MIC assay. DMSO was serially diluted with a top concentration of 1% v/v.
as §2, with “for each compound was” for “for each tested compound was”, “Standards Institute (CLSI).^6 In a” for “Standards Institute (CLSI). In a”, “concentration of test compound that” for “concentration of compound that”, “37° C. The concentration range tested for each compound during this study was 0.10 to 100 μM. DMSO served” for “37° C. (MIC values were supported by spectrophotometric readings at OD600). DMSO served”, “1% v/v. All MIC values were obtained from a minimum of three independent experiments.” for “1% v/v.”

[6] = system: C. albicans SC5314; test: Minimum fungicidal concentration assay, C. albicans; assay type: cell-based, Candida albicans; settings: Table 2B
[7] = system: MRSA BAA-1707 biofilms; test: Calgary Biofilm Device assay (MBC/MBEC), MRSA BAA-1707; assay type: cell-based, Staphylococcus aureus
Procedure: The lid of the Calgary device was then removed, washed and transferred to another 96-well plate containing 2-fold serial dilutions of the test compounds (the “challenge plate”). The total volume of media with compound in each well in the challenge plate is 150 μL. […] The lid was then removed from the challenge plate and MBC/MBEC values were determined using different final assays. […] The MBC values were determined as the concentration giving a lack of visible bacterial growth (i.e., turbidity). […] In select experiments, pegs from the Calgary device were removed from lead biofilm eradicators after final incubation, sonicated for 30 minutes in PBS and plated out to determine biofilm cell killing of lead biofilm-eradicating agents (i.e., colony forming unit per milliliter, CFU/mL).
Using a Calgary Biofilm Device, bacterial biofilms are established on pegs suspended to the bottom of a 96-well plate lid. Following biofilm establishment on lid pegs, lids are then transferred to new 96-well plates containing serial dilutions of test compound and allowed to incubate. After compound treatment, 96-well plate lids with pegs are once again transferred to 96-well plates containing fresh media. During this final phase of the assay, viable biofilms will grow and disperse planktonic cells into the media where they will grow and give a turbid well result. Conversely, wells that have no growth are a result of pegs that had eradicated bacterial biofilms. The lowest concentration at which no turbidity is observed is the minimum biofilm eradication concentration (MBEC). Using the Calgary Biofilm Device, both minimum biofilm eradication concentrations and minimum bactericidal concentrations (MBC) for planktonic bacterial can be determined using one assay from a single bacterial culture (FIG. 3A).

SMILES	C. albicans SC5314 MBEC [1]	C. albicans SC5314 MIC [2] [µM]	MIC C. albicans SC5314 ([2]; Table 4, antifungal) [µM]	C. neoformans 66031 MBC [3] [µM]	C. neoformans 66031 MIC [4] [µM]	MIC C. neof 66031 ([4]; Table 4, antifungal) [µM]	MIC K. pneu. 13883 ([5]; Table 4)	C. albicans SC5314 MBC [6] [µM]	MRSA BAA-1707 MBC ([7]; Table 2A, CBD assay)	MRSA BAA-1707 MBEC ([7]; Table 2A, CBD assay)	MIC ([2]; Candida albicans, SC5314, Table 4, antifungal) [µM]	MIC ([4]; Cryptococcus neoformans, ATCC66031, Table 4, antifungal, read-out: MIC C. neof 66031) [µM]	MIC ([5]; Klebsiella pneumoniae, ATCC13883, Table 1, read-out: MIC K. pneumoniae 13883) [µM]	MIC ([5]; Klebsiella pneumoniae, ATCC13883, Table 4, read-out: MIC K. pneu. 13883) [µM]	minimum biofilm eradication concentration (MBEC), MRSA BAA-1707 biofilms [7] [µM]	MBC ([7]; Staphylococcus aureus, Table 2, CBD assay, planktonic cells) [µM]	MRSA BAA-1707 MBEC ([7]; Table 2, CBD assay, biofilm)	reduction of viable biofilm cells ([7]; at 62.5, colony counts of CBD pegs, MRSA BAA-1707) [log]	MIC ([5]; Table 1, read-out: MIC K. pneumoniae 13883) [µM]	MRSA BAA-1707 MBC ([7]; Table 2, CBD assay, planktonic cells)
CCCCCCCCCCCCCCCCn1cc[n+](C)c1C.[I-] [Compound 8]	15.63	3.13	3.13	6.25	1.56	6.25	12.5 µM	6.25	11.7^a/ μM	31.3 µM										
CCCCCCCCCCCCCCCCn1cc[n+](Cc2ccccc2)c1C [NH125, 3-benzyl-1-hexadecyl-2-methyl-1H-imidazol-3-ium bromide, reference compound]											3.13	3.13	18.8	18.8	46.9	23.5	46.9 µM	3 to 4		
CCCCCCCCCCCC[N+](C)(C)CC[N+](C)(C)CC[N+](C)(C)CCCCCCCCCCCC [QAC-10, reference compound]							25 µM		93.8^a/ μM	93.8^a μM							93.8^a/93.8^a μM		25	93.8^a/93.8^a μM
CCCCCCCCCCCCCCCC[N+](C)(C)Cc1ccccc1.[Cl-] [BAC-16, reference compound]	15.63	3.13	3.13	6.25	3.12	6.25	9.38a micromolar	6.25												
CCCCCCCCCCCCCCCCn1cc(-c2ccccc2)[n+](C)n1.[I-] [Compound 30]									11.7^a/ μM	23.5^a μM										
CCCCCCCCCCCCCCCCn1cc[n+](CCO)c1C.[Br-] [Compound 11]	7.82	3.13	3.13	3.13	1.56	6.25	18.8a micromolar	6.25	23.5^a/ μM	46.9^a μM										
